One block for each molecule: values may come before it.
Legend:
[1] = target: T1, Receptor-interacting serine/threonine-protein kinase 4 (Homo sapiens) (UniProt P57078); assay: Selectivity interaction (KinomeScan (DiscoverX)) EUB0000178b RIPK4; conditions: at 1 µM
T1 sequence (whole entry): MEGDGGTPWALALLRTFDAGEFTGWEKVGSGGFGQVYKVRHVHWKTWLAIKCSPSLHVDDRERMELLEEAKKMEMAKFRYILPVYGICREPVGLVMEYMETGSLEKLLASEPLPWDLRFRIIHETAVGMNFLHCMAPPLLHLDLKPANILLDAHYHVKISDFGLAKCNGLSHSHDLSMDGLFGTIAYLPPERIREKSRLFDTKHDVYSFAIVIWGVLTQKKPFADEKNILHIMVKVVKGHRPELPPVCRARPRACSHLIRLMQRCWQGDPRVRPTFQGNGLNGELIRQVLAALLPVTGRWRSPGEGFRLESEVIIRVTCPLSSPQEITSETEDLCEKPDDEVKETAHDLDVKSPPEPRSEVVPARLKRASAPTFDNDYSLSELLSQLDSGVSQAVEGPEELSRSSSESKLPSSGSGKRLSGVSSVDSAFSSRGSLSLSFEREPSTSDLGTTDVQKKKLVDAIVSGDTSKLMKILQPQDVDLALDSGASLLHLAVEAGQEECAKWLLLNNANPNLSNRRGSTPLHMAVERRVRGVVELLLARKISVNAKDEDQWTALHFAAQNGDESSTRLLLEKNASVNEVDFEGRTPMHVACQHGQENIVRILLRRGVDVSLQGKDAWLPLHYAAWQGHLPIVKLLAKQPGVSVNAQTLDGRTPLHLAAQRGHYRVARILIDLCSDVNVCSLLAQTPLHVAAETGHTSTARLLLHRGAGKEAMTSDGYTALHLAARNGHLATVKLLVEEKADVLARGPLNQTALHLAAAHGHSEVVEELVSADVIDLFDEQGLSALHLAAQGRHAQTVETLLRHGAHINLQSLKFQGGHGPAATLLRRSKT

[2] = target: Ribosomal protein S6 kinase alpha-5 (Homo sapiens) (UniProt O75582); assay: Selectivity interaction (Kinase panel (University of Dundee)) EUB0000169b RPS6KA5; conditions: at 10 µM
[3] = target: Death-associated protein kinase 1 (Homo sapiens) (UniProt P53355); assay: Selectivity interaction (KinomeScan (DiscoverX)) EUB0000698a DAPK1; conditions: at 10 µM
[4] = target: Mitogen-activated protein kinase kinase kinase 1 (Homo sapiens) (UniProt Q13233); assay: Selectivity interaction (KinomeScan (DiscoverX)) EUB0000698a MAP3K1; conditions: at 10 µM
[5] = target: Vascular endothelial growth factor receptor 3 (Homo sapiens) (UniProt P35916); assay: Selectivity interaction (KinomeScan (DiscoverX)) EUB0000698a FLT4; conditions: at 10 µM
[6] = target: T2, Gamma-aminobutyric acid receptor subunit alpha-1 (Homo sapiens, UniProt P14867); assay: Selectivity interaction (GPCR panel (PDSP screen)) EUB0000702a GABRA1
T2 sequence (P14867 whole entry): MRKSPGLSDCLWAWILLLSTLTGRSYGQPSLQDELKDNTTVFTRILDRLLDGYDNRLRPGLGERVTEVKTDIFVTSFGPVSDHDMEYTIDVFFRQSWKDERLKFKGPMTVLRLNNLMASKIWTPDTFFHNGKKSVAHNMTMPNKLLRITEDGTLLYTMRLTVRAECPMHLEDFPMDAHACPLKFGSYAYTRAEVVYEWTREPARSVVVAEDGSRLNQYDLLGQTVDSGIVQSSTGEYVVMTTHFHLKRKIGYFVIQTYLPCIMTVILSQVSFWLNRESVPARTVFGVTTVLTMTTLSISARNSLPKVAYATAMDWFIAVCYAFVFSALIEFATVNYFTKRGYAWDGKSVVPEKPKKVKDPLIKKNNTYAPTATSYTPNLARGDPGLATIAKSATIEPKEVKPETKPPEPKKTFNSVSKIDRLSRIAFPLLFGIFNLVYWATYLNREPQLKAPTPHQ

[7] = target: Dual specificity protein kinase CLK2 (Homo sapiens, UniProt P49760); assay: Selectivity interaction (KinomeScan (DiscoverX)) EUB0000138c CLK2; conditions: at 100 nM
[8] = target: T3, Mitogen-activated protein kinase kinase kinase 19 (Homo sapiens) (UniProt Q56UN5); assay: Selectivity interaction (KinomeScan (DiscoverX)) EUB0000138c MAP3K19; conditions: at 100 nM
T3 sequence (whole entry): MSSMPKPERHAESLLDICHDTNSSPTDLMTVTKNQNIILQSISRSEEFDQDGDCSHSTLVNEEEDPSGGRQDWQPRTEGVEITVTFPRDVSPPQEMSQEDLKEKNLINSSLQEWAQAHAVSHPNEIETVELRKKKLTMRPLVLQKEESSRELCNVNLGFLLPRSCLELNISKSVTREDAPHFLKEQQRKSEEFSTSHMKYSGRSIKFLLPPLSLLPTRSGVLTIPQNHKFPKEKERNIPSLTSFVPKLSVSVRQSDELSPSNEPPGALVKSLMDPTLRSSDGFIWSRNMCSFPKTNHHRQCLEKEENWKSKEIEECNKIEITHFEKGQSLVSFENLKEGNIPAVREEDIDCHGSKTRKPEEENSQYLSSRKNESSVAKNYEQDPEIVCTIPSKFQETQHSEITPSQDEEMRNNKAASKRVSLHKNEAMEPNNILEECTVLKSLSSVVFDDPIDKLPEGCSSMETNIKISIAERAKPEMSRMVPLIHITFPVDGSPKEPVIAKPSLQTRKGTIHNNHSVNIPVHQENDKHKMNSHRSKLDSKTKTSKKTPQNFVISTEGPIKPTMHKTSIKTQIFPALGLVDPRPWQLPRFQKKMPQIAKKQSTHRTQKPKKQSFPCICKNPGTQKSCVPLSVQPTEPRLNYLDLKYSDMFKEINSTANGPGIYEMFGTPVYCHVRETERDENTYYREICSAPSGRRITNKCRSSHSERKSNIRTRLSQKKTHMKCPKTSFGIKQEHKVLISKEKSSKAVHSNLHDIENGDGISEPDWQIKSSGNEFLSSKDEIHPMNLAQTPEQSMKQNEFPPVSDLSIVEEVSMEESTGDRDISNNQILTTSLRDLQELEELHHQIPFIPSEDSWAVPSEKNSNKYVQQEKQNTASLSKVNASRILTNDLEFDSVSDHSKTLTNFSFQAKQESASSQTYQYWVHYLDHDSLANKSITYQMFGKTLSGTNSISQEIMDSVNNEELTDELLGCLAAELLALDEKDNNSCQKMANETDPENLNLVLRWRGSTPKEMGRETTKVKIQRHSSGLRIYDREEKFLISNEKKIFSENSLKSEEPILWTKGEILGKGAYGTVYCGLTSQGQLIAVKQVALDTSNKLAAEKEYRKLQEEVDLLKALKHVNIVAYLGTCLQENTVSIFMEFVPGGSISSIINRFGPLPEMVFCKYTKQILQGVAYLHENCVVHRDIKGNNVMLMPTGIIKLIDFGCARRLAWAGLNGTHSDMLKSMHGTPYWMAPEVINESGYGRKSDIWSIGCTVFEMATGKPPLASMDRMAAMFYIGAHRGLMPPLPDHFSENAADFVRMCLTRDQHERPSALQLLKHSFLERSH

Sequence of Vascular endothelial growth factor receptor 3 (Homo sapiens) (P35916 whole entry): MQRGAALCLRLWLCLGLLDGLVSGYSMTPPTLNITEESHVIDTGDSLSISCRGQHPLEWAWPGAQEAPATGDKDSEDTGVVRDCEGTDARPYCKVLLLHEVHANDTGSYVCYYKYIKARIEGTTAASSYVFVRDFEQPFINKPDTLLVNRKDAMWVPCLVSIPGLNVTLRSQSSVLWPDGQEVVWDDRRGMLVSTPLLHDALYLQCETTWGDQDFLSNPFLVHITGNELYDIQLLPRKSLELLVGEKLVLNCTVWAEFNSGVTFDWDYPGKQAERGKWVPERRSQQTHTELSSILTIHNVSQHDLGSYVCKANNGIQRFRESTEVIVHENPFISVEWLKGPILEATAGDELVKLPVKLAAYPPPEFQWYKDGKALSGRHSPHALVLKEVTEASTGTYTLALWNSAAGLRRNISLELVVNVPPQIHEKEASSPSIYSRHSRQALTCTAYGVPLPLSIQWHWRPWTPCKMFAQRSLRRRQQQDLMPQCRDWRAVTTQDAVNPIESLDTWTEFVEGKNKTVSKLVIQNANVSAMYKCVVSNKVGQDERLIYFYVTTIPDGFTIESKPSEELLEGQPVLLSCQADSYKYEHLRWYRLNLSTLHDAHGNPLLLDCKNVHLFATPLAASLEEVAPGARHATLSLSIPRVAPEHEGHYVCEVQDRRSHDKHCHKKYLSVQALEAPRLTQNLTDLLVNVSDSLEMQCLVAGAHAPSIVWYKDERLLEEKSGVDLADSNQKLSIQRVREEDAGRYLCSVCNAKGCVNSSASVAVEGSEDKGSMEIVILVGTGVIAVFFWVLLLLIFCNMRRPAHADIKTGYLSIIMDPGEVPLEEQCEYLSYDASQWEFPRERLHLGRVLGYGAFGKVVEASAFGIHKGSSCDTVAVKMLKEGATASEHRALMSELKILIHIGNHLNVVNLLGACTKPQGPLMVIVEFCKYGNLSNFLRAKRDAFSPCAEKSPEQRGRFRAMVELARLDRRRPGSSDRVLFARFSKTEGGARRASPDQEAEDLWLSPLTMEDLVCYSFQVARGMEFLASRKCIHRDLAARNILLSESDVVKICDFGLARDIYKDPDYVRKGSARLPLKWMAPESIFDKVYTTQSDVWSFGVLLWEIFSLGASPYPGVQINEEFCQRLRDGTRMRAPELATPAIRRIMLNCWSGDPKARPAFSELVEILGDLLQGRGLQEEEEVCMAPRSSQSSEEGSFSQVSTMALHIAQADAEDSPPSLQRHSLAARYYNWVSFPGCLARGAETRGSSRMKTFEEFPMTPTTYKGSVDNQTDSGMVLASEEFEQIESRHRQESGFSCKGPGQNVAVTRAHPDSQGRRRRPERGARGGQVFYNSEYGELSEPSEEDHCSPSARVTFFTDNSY
Sequence of Dual specificity protein kinase CLK2 (P49760 whole entry, looked up): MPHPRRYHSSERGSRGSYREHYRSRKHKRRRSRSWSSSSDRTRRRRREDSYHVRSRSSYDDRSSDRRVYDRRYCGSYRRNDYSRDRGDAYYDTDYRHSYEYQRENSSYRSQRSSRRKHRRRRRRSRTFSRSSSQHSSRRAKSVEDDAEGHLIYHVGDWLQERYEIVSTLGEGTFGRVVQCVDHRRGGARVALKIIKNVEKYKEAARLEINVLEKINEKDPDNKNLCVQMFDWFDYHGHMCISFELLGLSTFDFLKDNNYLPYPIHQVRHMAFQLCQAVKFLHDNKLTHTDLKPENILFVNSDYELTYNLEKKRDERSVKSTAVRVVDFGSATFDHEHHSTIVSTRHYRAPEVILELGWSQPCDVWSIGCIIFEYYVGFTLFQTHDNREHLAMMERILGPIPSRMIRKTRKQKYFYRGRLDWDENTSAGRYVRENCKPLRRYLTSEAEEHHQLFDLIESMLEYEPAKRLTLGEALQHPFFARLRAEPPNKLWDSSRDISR
Sequence of Death-associated protein kinase 1 (Homo sapiens) (P53355 whole entry, looked up): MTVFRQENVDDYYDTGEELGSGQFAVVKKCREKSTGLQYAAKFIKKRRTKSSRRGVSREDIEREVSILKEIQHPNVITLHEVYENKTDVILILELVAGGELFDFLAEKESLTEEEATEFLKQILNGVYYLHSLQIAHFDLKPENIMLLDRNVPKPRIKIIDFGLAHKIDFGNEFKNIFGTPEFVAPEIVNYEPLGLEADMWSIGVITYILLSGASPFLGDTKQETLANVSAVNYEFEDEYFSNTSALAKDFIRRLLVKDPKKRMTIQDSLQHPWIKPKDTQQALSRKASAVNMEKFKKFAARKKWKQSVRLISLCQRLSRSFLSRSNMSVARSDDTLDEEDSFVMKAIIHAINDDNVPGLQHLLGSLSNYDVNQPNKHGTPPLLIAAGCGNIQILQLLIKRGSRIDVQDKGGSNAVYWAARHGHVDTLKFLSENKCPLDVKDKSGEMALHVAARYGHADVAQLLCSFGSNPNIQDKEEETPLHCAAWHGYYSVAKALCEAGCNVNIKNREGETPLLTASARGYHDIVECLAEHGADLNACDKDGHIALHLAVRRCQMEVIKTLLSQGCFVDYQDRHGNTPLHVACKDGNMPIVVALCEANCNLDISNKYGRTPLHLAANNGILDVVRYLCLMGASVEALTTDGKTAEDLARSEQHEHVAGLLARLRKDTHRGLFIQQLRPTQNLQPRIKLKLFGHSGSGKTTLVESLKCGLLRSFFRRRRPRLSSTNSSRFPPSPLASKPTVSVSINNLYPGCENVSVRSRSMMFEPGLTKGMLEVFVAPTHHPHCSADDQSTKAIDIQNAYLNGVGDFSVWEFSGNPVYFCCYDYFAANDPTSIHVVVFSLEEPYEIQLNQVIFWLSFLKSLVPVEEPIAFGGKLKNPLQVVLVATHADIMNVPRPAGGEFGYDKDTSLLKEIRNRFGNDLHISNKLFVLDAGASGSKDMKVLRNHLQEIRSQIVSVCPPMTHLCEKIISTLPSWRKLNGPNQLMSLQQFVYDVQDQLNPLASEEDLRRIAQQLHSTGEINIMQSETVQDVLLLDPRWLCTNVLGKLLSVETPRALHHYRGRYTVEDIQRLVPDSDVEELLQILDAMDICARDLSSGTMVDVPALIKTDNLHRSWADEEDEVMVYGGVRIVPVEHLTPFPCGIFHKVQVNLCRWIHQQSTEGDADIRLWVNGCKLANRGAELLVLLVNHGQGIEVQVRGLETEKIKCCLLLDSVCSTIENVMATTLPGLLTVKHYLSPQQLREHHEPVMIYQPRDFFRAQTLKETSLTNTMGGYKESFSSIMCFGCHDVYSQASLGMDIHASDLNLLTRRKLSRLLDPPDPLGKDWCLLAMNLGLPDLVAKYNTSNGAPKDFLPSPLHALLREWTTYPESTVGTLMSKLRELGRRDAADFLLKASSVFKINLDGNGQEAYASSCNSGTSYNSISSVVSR
Sequence of Ribosomal protein S6 kinase alpha-5 (Homo sapiens) (O75582 whole entry, looked up): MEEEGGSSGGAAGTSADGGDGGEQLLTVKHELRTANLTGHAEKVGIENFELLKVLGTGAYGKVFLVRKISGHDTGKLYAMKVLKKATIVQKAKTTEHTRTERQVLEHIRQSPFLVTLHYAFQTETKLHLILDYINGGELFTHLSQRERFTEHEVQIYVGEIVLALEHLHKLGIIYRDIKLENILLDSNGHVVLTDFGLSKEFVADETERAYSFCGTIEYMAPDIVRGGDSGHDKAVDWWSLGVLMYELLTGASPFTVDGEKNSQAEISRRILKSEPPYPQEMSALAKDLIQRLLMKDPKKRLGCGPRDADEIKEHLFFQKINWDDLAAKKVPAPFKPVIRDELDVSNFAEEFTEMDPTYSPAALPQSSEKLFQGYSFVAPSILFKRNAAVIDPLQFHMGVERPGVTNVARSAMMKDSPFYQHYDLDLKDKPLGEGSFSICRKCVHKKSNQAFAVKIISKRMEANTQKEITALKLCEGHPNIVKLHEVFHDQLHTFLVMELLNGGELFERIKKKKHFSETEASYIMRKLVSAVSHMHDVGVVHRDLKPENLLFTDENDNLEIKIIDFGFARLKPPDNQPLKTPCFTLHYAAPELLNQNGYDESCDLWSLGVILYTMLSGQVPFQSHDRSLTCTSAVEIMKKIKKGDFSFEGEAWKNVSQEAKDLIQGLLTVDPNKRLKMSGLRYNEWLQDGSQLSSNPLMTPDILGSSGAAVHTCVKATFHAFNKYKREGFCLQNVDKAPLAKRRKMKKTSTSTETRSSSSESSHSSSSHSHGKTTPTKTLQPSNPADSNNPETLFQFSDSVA

% of control [1]: 9.5%
Compound: CN1C(=O)c2sccc2N(C)c2nc(Nc3ccc(S(N)(=O)=O)cc3)ncc21

% of control [2]: 89%
Compound: CC[C@@H]1C(=O)N(C)c2cnc(Nc3ccc(C(=O)NC4CCN(C)CC4)cc3OC)nc2N1C1CCCC1

% of control [4]: 1.6%
% of control [5]: 1.4%
Compound: COc1cc2ncn(-c3cc(OCc4ccccc4C(F)(F)F)c(C(N)=O)s3)c2cc1OC [GW843682X]
% of control [3]: 8.6%

Ki [6]: 1480 nM
Compound: CN(c1ccnc(CNc2nc(Nc3ccc4c(c3)CC(=O)N4)ncc2C(F)(F)F)n1)S(C)(=O)=O [PF-00911705]

% of control [7]: 0%
% of control [8]: 1.7%
Compound: CNC(=O)c1ccc(Nc2ncc(C(F)(F)F)c(NCc3nccnc3N(C)S(C)(=O)=O)n2)cc1 [DEFACTINIB]
